Results from patent US11618880B2, “Compositions comprising bacterial strains and use thereof in controlling pathogenic microorganisms” (Better Air International Limited, priority 2018, dated 2023).

Columns and labels:
Assay in all cases: Agar well diffusion assay, antagonism of molds
Type in all cases: cell-based
Conditions in all cases: PDA plates, 25° C. 72 hours
[1] = system: Cladosporium sphaerospermum Penzig (ATCC MYA-4645)
Description: (§1) The agar well diffusion assay was performed to evaluate the antagonistic activity of B. amyloliquefaciens 298 against the growth of pathogenic bacteria including Escherichia coli ATCC 22922, Pseudomonas aeruginosa, B. cereus ATCC 27348, Staphylococcus aureus ATCC 11335, Salmonella Typhimurium ATCC 14028 and Listeria innocua ATCC 3586. […] Brain Heart Infusion (BHI) Agar was used for the antagonism against pathogenic microorganisms while the Potato Dextrose Agar (PDA) was used for evaluation against molds. Reference pathogens were prepared using BHI broth at 37° C. for 18 hours while B. amyloliquefaciens 298 was grown using LB broth at 37° C. for 18 hours. Molds were prepared using PDA at 25° C. with 85% HR for 7 days. Mold spores, pathogens and B. amyloliquefaciens 298 were harvested and resuspended in PBS. Pathogens and B. amyloliquefaciens 298 were adjusted to an optical density of 0.2 and 100 uL of pathogen suspended in PBS was spread on BHI agar plates. The same amount of mold spore suspension was inoculated on PDA. Wells were made in all the plates and 20 μL of B. amyloliquefaciens 298 suspensions were inoculated in the wells while the BHI plates were incubated at 37° C. for 24 hours and PDA plates at 25° C. for 72 hours.

[2] = system: Penicillium chrysogenum Thom (ATCC MYA-4644)
Description: as §1

[3] = system: Alternaria alternata (Fries) Keissler (ATCC MYA-4642)
Description: as §1

## OO [Hydrogen peroxide 10%, hydrogen peroxide]
[1]
  Inhibition zone, Cladosporium sphaerospermum Penzig (ATCC MYA-4645): 12 mm
[2]
  Inhibition zone, Penicillium chrysogenum Thom (ATCC MYA-4644): 10 mm
[3]
  Inhibition zone, Alternaria alternata (Fries) Keissler (ATCC MYA-4642): 8 mm
